Here are results for 56 compounds from the OPERA property sets (Mansouri et al. 2018).

`CC(C)OC(=O)C(Cl)(Cl)Cl` showed a boiling point of 175 °C. Turning to `FC(F)(F)C(Cl)(Cl)C(F)(F)Cl`, the boiling point came to 72 °C and the melting point was -4.3 °C. Compound `CC(C)NC(=O)N1CC(=O)N(c2cc(Cl)cc(Cl)c2)C1=O` came in with a log10 Henry constant (atm·m³/mol) of -8.51, a log10 Koc (L/kg) of 2.85, a log10 vapour pressure (mmHg) of -8.43 and a melting point of 136 °C. For `CCCCCCCCCCCCCCCCCC(=O)OCC(O)CO` (stereo unspecified), the melting point is 74 °C and the ready biodegradability result is reported as “readily biodegradable”. Consider `CCCCC(C)C(C)(C)C` (stereo unspecified), for which the boiling point amounted to 158 °C. With `CC(=O)c1ccc(C(F)(F)F)cc1`, the melting point stood at 31 °C. `CCCOC(OCCC)OCCC`: the boiling point was 191 °C. Regarding `CC1CCCC(C)C1O` (stereo unspecified), the boiling point stood at 176 °C and the melting point came to 32.5 °C. The compound `O=[N+]([O-])c1cccc(-c2ccccc2)c1` came in with a melting point of 62 °C.

`CS(=O)(=O)O.Cc1ccc(N(CC2=NCCN2)c2cccc(O)c2)cc1`: the melting point was found to be 181 °C. In turn, `CCNc1nsc2ccccc12` registered a melting point of 78 °C. Compound `FC(F)(F)C(F)(F)C(F)(F)C(F)(F)F` came in with a boiling point of -1.9 °C, a log10 vapour pressure (mmHg) of 3.3 and a melting point of -128 °C. For `OCCN1CCOCC1`, the boiling point was determined as 227 °C, the melting point was -1.6 °C and the ready biodegradability result is “readily biodegradable”.

With `Cc1ccsc1`, the boiling point is 116 °C, the log10 vapour pressure (mmHg) was found to be 1.35, the melting point is -69 °C and the ready biodegradability entry is “not readily biodegradable”. As to `Nc1ccncc1`, the boiling point was 273 °C, the melting point was 158 °C and the ready biodegradability result is listed as “not readily biodegradable”. The compound `Clc1ccc(-c2c(Cl)c(Cl)cc(Cl)c2Cl)c(Cl)c1` yielded a log10 Henry constant (atm·m³/mol) of -4.29. Regarding `CC(C)=CCC[C@@H](C)[C@H]1CC[C@H]2[C@@H]3CC=C4C[C@@H](O)CC[C@]4(C)[C@H]3CC[C@]12C`, the melting point worked out at 122 °C. `CC(C)=CCl`: the boiling point was determined as 68 °C.

Turning to `NCc1ccccn1`, the boiling point was determined as 203 °C.

For the compound `CCCCCCCCCCCCI`, the boiling point is 298 °C, the log10 vapour pressure (mmHg) was -1.85 and the melting point is 0.3 °C.

Take `N[C@@H](CC(=O)O)C(=O)O`: the ready biodegradability entry is “readily biodegradable”.

On to `O=C(Cl)CCCC(=O)Cl`, for which the boiling point is 217 °C and the log10 vapour pressure (mmHg) was -0.932.

Take `O=C(O)CNC(=S)C(=S)NCC(=O)O`: the melting point was 220 °C.

As for `CCNc1ccc2ccccc2c1`, the boiling point worked out at 316 °C and the melting point is 236 °C. In turn, `c1ccc2cc3ccccc3cc2c1` yielded a boiling point of 340 °C, a log10 Henry constant (atm·m³/mol) of -4.25, a log10 Koa of 7.55 and a log10 Koc (L/kg) of 4.31. Further, the log10 biodegradation half-life (days) came to 2.09, the log10 vapour pressure (mmHg) is -5.19, the melting point came out at 215 °C and the ready biodegradability entry is given as “not readily biodegradable”. As to `CC(C)(C)OC(=O)C1(S(=O)(=O)c2ccc(Cl)cc2)CC1`, the melting point worked out at 110 °C. In turn, `CCCC(CCC)C(C)C` showed a boiling point of 159 °C.

The compound `C[C@]12CC[C@@H](O)C[C@@H]1CC[C@@H]1[C@@H]2CC[C@]2(C)C(=O)CC[C@@H]12` displayed a melting point of 182 °C.

Compound `Cc1ccc(C(=O)c2ccccc2)c(C)c1` had a boiling point of 322 °C.

For `O=COCc1ccccc1`, the boiling point was determined as 203 °C.

As to `CCCC(=O)N(CC)CC`, the boiling point was determined as 206 °C.

Take `CCC1(c2ccccc2)C(=O)NC(=O)NC1=O`: the melting point turned out to be 174 °C and the ready biodegradability result is on record as “not readily biodegradable”. `C=CCC`: the boiling point was -6.2 °C, the log10 Henry constant (atm·m³/mol) was -0.633, the log10 vapour pressure (mmHg) worked out at 3.35 and the melting point was -185 °C.

On to `O=Cc1cccc2ccccc12`, for which the boiling point was determined as 292 °C and the melting point came to 33.5 °C. Take `CCC1(C)OC(=O)NC1=O` (stereo unspecified): the melting point stood at 46 °C. Take `Cc1cccc(C)c1C(=O)O`: the boiling point was found to be 274 °C and the melting point came out at 116 °C. Take `CCCCCCCCCCCC(CCCCCCCC)c1ccccc1` (stereo unspecified): the melting point was determined as 17.9 °C. Consider `FC(F)(F)c1ccc(Cl)cc1`, for which the boiling point turned out to be 138 °C, the log10 vapour pressure (mmHg) stood at 0.882 and the melting point is -33 °C. `CCCN=C=S`: the boiling point came to 153 °C. `O=C(OC(Cl)(Cl)Cl)C(Cl)(Cl)Cl`: the boiling point turned out to be 192 °C and the melting point is 34 °C. Turning to `[N-]=[N+]=Nc1ccccc1`, the melting point was -27.5 °C. Compound `C=C(C)C(=O)CC` had a boiling point of 118 °C and a melting point of -69.5 °C. For the compound `COC(=O)CSc1cc(/N=c2\sc(=O)n3n2CCCC3)c(F)cc1Cl`, the log10 vapour pressure (mmHg) is -8.48 and the melting point turned out to be 106 °C.

Compound `Nc1c([N+](=O)[O-])cc(Cl)cc1[N+](=O)[O-]` displayed a melting point of 147 °C. Same read-out and setting: as for `C[C@]1(O)CC[C@H]2[C@@H]3CCC4=CC(=O)CC[C@]4(C)[C@@]3(F)[C@@H](O)C[C@@]21C`, the figure is 270 °C. Turning to `CCCCN(CCCC)CCCN`, the boiling point was determined as 205 °C.

Compound `O=C1CC[C@@]2(O)[C@H]3Cc4ccc(O)c5c4[C@@]2(CCN3CC2CC2)[C@H]1O5` came in with a melting point of 169 °C.

On to `Nc1nc(N)nc(N)n1`, for which the log10 vapour pressure (mmHg) is -9.44 and the ready biodegradability result is given as “not readily biodegradable”. Regarding `OCC(Cl)Cl`, the boiling point was determined as 146 °C. Consider `O=C1C(Cl)=C(Cl)C(=O)C(Cl)=C1Cl`, for which the log10 Koc (L/kg) came out at 2.32 and the melting point turned out to be 290 °C. As for `COC(=O)c1ccc2c(c1)OCO2`, the melting point came out at 53 °C.

As for `Cc1cccc2c1CC=C2`, the boiling point came to 209 °C. With `O=C1c2cccc(O)c2C(=O)c2c(O)cccc21`, the melting point stood at 193 °C.

In the case of `CCN(CC)c1ccc(Br)cc1`, the boiling point came out at 270 °C and the melting point was 38 °C. The compound `O[C@H]1CC[C@H](O)CC1` yielded a melting point of 143 °C.

As for `O=c1cc(O)c2ccccc2o1`, the melting point was 214 °C.
